Patent publication US11840533B2, “Pyridinone-based epigenetic modifiers and uses thereof” (THE BOARD OF TRUSTEES OF THE UNIVERSITY OF ILLINOIS, priority 2017, dated 2023)

These compounds were tested on fulvestrant-resistant MCF7:5C-FR cells (assay: Fulvestrant-resistant breast cancer cell viability (cell proliferation) assay). Conditions: 120 h, growth inhibition in fulvestrant-resistant MCF-7:CFR cells, 120 hrs.
Assay type: cell-based
Experimental: For the cell proliferation assay, the fulvestrant-resistant MCF7:5C-FR cells were seeded at about 2000 to about 2500/well in 96-well plates. The next day, compounds were add to the cells at desired serial concentrations form 3 nM to 10 uM. A final 0.1% (v/v) DMSO was used as vehicle control and 1 uM JQ1 was used as positive. The cell were grown in the normal culture condition for 120 hrs. Then the Hoechst 33342 dye were add to each well at a final concentration of 5 μg/ml, and put back to the incubator at 37 C for 90 min. The plates were scanned immediately after the incubation with Celigo (Nexcelcom Biocesnse) for the fluorescence of the nuclear using DAPI channel, and the cell number was counted thought the analysis function of the Celigo software. The normalized cell number to the vehicle control was used to represent the cell proliferation. […] N.D.=Not determined.

`Cn1cc(-c2cc(NS(C)(=O)=O)c3ncn(Cc4ccc(F)cc4)c3c2)c2ccnc(O)c21` [Compound 38, N-(1-(4-fluorobenzyl)-6-(7-hydroxy-1-methyl-1H-pyrrolo[2,3-c]pyridin-3-yl)-1H-benzo[d]imidazol-4-yl)methanesulfonamide] and `Cn1cc(-c2nc3c(NS(C)(=O)=O)cccc3n2Cc2ccc(F)cc2)c2ccnc(O)c21` [Compound 39, N-(1-(4-fluorobenzyl)-2-(7-hydroxy-1-methyl-1H-pyrrolo[2,3-c]pyridin-3-yl)-1H-benzo[d]imidazol-4-yl)methanesulfonamide] cannot be ordered by IC50: < 0.2 µM for the first, < 1 µM for the second.

`CCS(=O)(=O)Nc1cccc2c1nc(-c1cn(C)c3c(O)nccc13)n2Cc1ccc(F)cc1` [Compound 40, N-(1-(4-fluorobenzyl)-2-(7-hydroxy-1-methyl-1H-pyrrolo[2,3-c]pyridin-3-yl)-1H-benzo[d]imidazol-4-yl)ethanesulfonamide] and `CCS(=O)(=O)Nc1cccc2c1nc(-c1cn(C)c3c(O)nccc13)n2Cc1ccccc1` [Compound 60, N-(1-benzyl-2-(7-hydroxy-1-methyl-1H-pyrrolo[2,3-c]pyridin-3-yl)-1H-benzo[d]imidazol-4-yl)ethanesulfonamide] cannot be ordered by IC50: < 1 µM for the first, > 0.1 µM for the second.

`CCS(=O)(=O)Nc1cccc2c1nc(-c1cn(C)c3c(O)nccc13)n2Cc1ccc(F)cc1C` [Compound 41, N-(1-(4-fluoro-2-methylbenzyl)-2-(7-hydroxy-1-methyl-1H-pyrrolo[2,3-c]pyridin-3-yl)-1H-benzo[d]imidazol-4-yl)ethanesulfonamide] and `CCS(=O)(=O)Nc1cccc2c1nc(-c1cn(C)c3c(O)nccc13)n2Cc1ccc(F)cc1F` [Compound 43, N-(1-(2,4-difluorobenzyl)-2-(7-hydroxy-1-methyl-1H-pyrrolo[2,3-c]pyridin-3-yl)-1H-benzo[d]imidazol-4-yl)ethanesulfonamide] cannot be ordered by IC50: < 1 µM for the first, < 1 µM for the second.

`CCS(=O)(=O)Nc1cccc2c1nc(-c1cn(C)c3c(O)nccc13)n2Cc1c(C)cc(F)cc1C` [Compound 42, N-(1-(4-fluoro-2,6-dimethylbenzyl)-2-(7-hydroxy-1-methyl-1H-pyrrolo[2,3-c]pyridin-3-yl)-1H-benzo[d]imidazol-4-yl)ethanesulfonamide] and `CCS(=O)(=O)Nc1cc(-c2cn(C)c3c(O)nccc23)cc2c1ccn2Cc1cccc(F)c1F` [Compound 48, N-(1-(2,3-difluorobenzyl)-6-(7-hydroxy-1-methyl-1H-pyrrolo[2,3-c]pyridin-3-yl)-1H-indol-4-yl)ethanesulfonamide] cannot be ordered by IC50: < 1 µM for the first, < 1 µM for the second.

`CCS(=O)(=O)Nc1cc(-c2cn(C)c3c(O)nccc23)cc2c1cnn2Cc1cccc2ccsc12` [Compound 44, N-(1-(benzo[b]thiophen-7-ylmethyl)-6-(7-hydroxy-1-methyl-1H-pyrrolo[2,3-c]pyridin-3-yl)-1H-indazol-4-yl)ethanesulfonamide] and `CCS(=O)(=O)Nc1cc(-c2cn(C)c3c(O)nccc23)cc2c1ccn2Cc1cccc2ccsc12` [Compound 53, N-(1-(benzo[b]thiophen-7-ylmethyl)-6-(7-hydroxy-1-methyl-1H-pyrrolo[2,3-c]pyridin-3-yl)-1H-indol-4-yl)ethanesulfonamide] cannot be ordered by IC50: > 0.1 µM for the first, < 1 µM for the second.

`CCS(=O)(=O)Nc1cc(-c2cn(C)c3c(O)nccc23)cc2c1cnn2Cc1cccc2c1ccn2C` [Compound 45, N-(6-(7-hydroxy-1-methyl-1H-pyrrolo[2,3-c]pyridin-3-yl)-1-((1-methyl-1H-indol-4-yl)methyl)-1H-indazol-4-yl)ethanesulfonamide] and `CCS(=O)(=O)Nc1cc(-c2cn(C)c3c(O)nccc23)cc2c1ccn2Cc1cccc(Cl)c1Cl` [Compound 47, N-(1-(2,3-dichlorobenzyl)-6-(7-hydroxy-1-methyl-1H-pyrrolo[2,3-c]pyridin-3-yl)-1H-indol-4-yl)ethanesulfonamide] cannot be ordered by IC50: > 0.1 µM for the first, < 1 µM for the second.

`Cn1cc(-c2cc(NS(=O)(=O)C3CC3)c3cnn(Cc4ccccc4)c3c2)c2ccnc(O)c21` [Compound 46, N-(1-benzyl-6-(7-hydroxy-1-methyl-1H-pyrrolo[2,3-c]pyridin-3-yl)-1H-indazol-4-yl)cyclopropanesulfonamide] and `CCS(=O)(=O)Nc1cc(-c2cn(C)c3c(O)nccc23)cc2c1ccn2Cc1ccccc1` [Compound 49, N-(1-benzyl-6-(7-hydroxy-1-methyl-1H-pyrrolo[2,3-c]pyridin-3-yl)-1H-indol-4-yl)ethanesulfonamide] cannot be ordered by IC50: < 1 µM for the first, < 1 µM for the second.

`CCS(=O)(=O)Nc1cc(-c2cn(C)c3c(O)nccc23)cc2c1ccn2Cc1ccc(Cl)c(Cl)c1` [Compound 50, N-(1-(3,4-dichlorobenzyl)-6-(7-hydroxy-1-methyl-1H-pyrrolo[2,3-c]pyridin-3-yl)-1H-indol-4-yl)ethanesulfonamide] and `CCS(=O)(=O)Nc1cc(-c2cn(C)c3c(O)nccc23)cc2c1ccn2Cc1ccc(O)c(Cl)c1` [Compound 54, N-(1-(3-chloro-4-hydroxybenzyl)-6-(7-hydroxy-1-methyl-1H-pyrrolo[2,3-c]pyridin-3-yl)-1H-indol-4-yl)ethanesulfonamide] cannot be ordered by IC50: < 1 µM for the first, > 0.1 µM for the second.

`CCS(=O)(=O)Nc1cc(-c2cn(C)c3c(O)nccc23)cc2c1ccn2Cc1cc(Cl)ccc1OC` [Compound 51, N-(1-(5-chloro-2-methoxybenzyl)-6-(7-hydroxy-1-methyl-1H-pyrrolo[2,3-c]pyridin-3-yl)-1H-indol-4-yl)ethanesulfonamide] and `CCS(=O)(=O)Nc1cc(-c2cn(C)c3c(O)nccc23)cc2c1ccn2Cc1cc(Cl)ccc1Cl` [Compound 52, N-(1-(2,5-dichlorobenzyl)-6-(7-hydroxy-1-methyl-1H-pyrrolo[2,3-c]pyridin-3-yl)-1H-indol-4-yl)ethanesulfonamide] cannot be ordered by IC50: < 1 µM for the first, < 1 µM for the second.

`CCS(=O)(=O)Nc1cc(-c2cn(C)c3c(O)nccc23)cc2c1ccn2Cc1cc(Cl)c(O)cc1C` [Compound 55, N-(1-(5-chloro-4-hydroxy-2-methylbenzyl)-6-(7-hydroxy-1-methyl-1H-pyrrolo[2,3-c]pyridin-3-yl)-1H-indol-4-yl)ethanesulfonamide] and `CCS(=O)(=O)Nc1cc(-c2cn(C)c3c(O)nccc23)cc2c1ccn2Cc1cc(Cl)cc(CCN(C)C)c1` [Compound 57, N-(1-(3-chloro-5-(2-(dimethylamino)ethyl)benzyl)-6-(7-hydroxy-1-methyl-1H-pyrrolo[2,3-c]pyridin-3-yl)-1H-indol-4-yl)ethanesulfonamide] cannot be ordered by IC50: > 0.1 µM for the first, > 0.1 µM for the second.

`CCS(=O)(=O)Nc1cc(-c2cn(C)c3c(O)nccc23)cc2c1ccn2Cc1cc(Cl)cc(OCCN(C)C)c1` [Compound 56, N-(1-(3-chloro-5-(2-(dimethylamino)ethoxy)benzyl)-6-(7-hydroxy-1-methyl-1H-pyrrolo[2,3-c]pyridin-3-yl)-1H-indol-4-yl)ethanesulfonamide] and `CCS(=O)(=O)Nc1cc(-c2cn(C)c3c(O)nccc23)cc2c1ccn2Cc1ccc(C#N)cc1` [Compound 58, N-(1-(4-cyanobenzyl)-6-(7-hydroxy-1-methyl-1H-pyrrolo[2,3-c]pyridin-3-yl)-1H-indol-4-yl)ethanesulfonamide] cannot be ordered by IC50: > 0.1 µM for the first, < 1 µM for the second.

In the case of `CCS(=O)(=O)Nc1cc(-c2cn(C)c3c(O)nccc23)cc2c1ccn2Cc1ccccc1C(F)(F)F` [Compound 59, N-(6-(7-hydroxy-1-methyl-1H-pyrrolo[2,3-c]pyridin-3-yl)-1-(2-(trifluoromethyl)benzyl)-1H-indol-4-yl)ethanesulfonamide], the IC50 is reported as > 0.1 µM.
